Experimental data published in the supplement of paper PMC10307832.

Columns and labels:
Test in all cases: relative viability (nuclei count vs DMSO), 5 days (fraction); higher = more cells survive
Obatoclax + Olaparib = compound: COC1=CC(c2cc3ccccc3[nH]2)=N/C1=C\c1[nH]c(C)cc1C [Obatoclax] + O=C(c1cc(Cc2n[nH]c(=O)c3ccccc23)ccc1F)N1CCN(C(=O)C2CC2)CC1 [Olaparib] (partner 8 µM)
Summary of the method: (§1)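 Each reported value is a median over duplicate plates. It expresses relative viability: treated-well nuclei count divided by vehicle-well nuclei count. Lung cancer cell lines in 1536-well plates were dosed by pin tool a day after seeding, alone with one drug or with a fixed anchor-drug dose plus five library-drug doses (not always all listed) in √10 steps, and nuclei were counted after 5 days.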

Obatoclax + Phenformin = compound: COC1=CC(c2cc3ccccc3[nH]2)=N/C1=C\c1[nH]c(C)cc1C [Obatoclax] + N=C(N)NC(=N)NCCc1ccccc1 [Phenformin] (partner 250 µM)
Summary of the method: as §1

Obatoclax + Navitoclax = compound: COC1=CC(c2cc3ccccc3[nH]2)=N/C1=C\c1[nH]c(C)cc1C [Obatoclax] + CC1(C)CCC(c2ccc(Cl)cc2)=C(CN2CCN(c3ccc(C(=O)NS(=O)(=O)c4ccc(N[C@H](CCN5CCOCC5)CSc5ccccc5)c(S(=O)(=O)C(F)(F)F)c4)cc3)CC2)C1 [Navitoclax] (partner 0.5 µM)
Summary of the method: as §1

[1] = compound: CC1=CC(=NN1)NC2=CC(=NC(=N2)/C=C/C3=CC=CC=C3)N4CCN(CC4)C + Cc1nc(Nc2ncc(C(=O)Nc3c(C)cccc3Cl)s2)cc(N2CCN(CCO)CC2)n1 [Dasatinib] (partner 0.075 µM)
Summary of the method: as §1

Cell Line	relative viability (Obatoclax + Olaparib; first compound 0.01 µM)	relative viability (Obatoclax + Olaparib; first compound 0.03162 µM)	relative viability (Obatoclax + Olaparib; first compound 0.1 µM)	relative viability (Obatoclax + Olaparib; first compound 0.3162 µM)	relative viability (Obatoclax + Olaparib; first compound 1 µM)	relative viability (Obatoclax + Phenformin; first compound 0.01 µM)	relative viability (Obatoclax + Phenformin; first compound 0.03162 µM)	relative viability (Obatoclax + Phenformin; first compound 0.1 µM)	relative viability (Obatoclax + Phenformin; first compound 0.3162 µM)	relative viability (Obatoclax + Phenformin; first compound 1 µM)	relative viability (Obatoclax + Navitoclax; first compound 0.01 µM)	relative viability (Obatoclax + Navitoclax; first compound 0.03162 µM)	relative viability (Obatoclax + Navitoclax; first compound 0.1 µM)	relative viability (Obatoclax + Navitoclax; first compound 0.3162 µM)	relative viability (Obatoclax + Navitoclax; first compound 1 µM)	relative viability ([1]; first compound 0.08 µM)	relative viability ([1]; first compound 0.253 µM)	relative viability ([1]; first compound 0.8 µM)	relative viability ([1]; first compound 2.53 µM)	relative viability ([1]; first compound 8 µM)
201T	0.873	0.782	0.838	0.823	0.831	0.434	0.457	0.43	0.399	0.463	1.23	1.2	1.18	1.21	1.31	0.586	0.546	0.541	0.435	0.208
A549	0.326	0.367	0.0867	0.361	0.342	0.131	0.248	0.035	0.222	0.0807	1.2	1.29	1.16	0.682	0.0677					
A-427	0.82	0.706	0.559	0.775	0.416	0.339	0.342	0.32	0.287	0.165	0.864	0.917	0.95	0.986	0.959	0.789	0.579	0.631	0.156	0.0981
ABC-1	1.08	0.95	0.776	0.799	0.566	0.226	0.215	0.291	0.22	0.297						0.496	0.692	0.522	0.207	0.145
BEN	1.03	1.04	0.864	0.914	0.942	0.287	0.224		0.286	0.277	0.0996	0.0601	0.052	0.0537	0.078	0.339	0.306	0.32	0.257	0.164
CAL-12T	0.759	0.764	0.724	0.679	0.232	0.552	0.612	0.538	0.155	0.102	1.06	1.03	1.24	0.926	0.103	0.52	0.38	0.342	0.0924	0.0804
COR-L23	0.37	0.352	0.354	0.248	0.156	0.443	0.479	0.425	0.328	0.216	1.08	1.06	0.883	0.257	0.2	0.423	0.445	0.493	0.143	0.0623
COR-L 105	0.727	0.76	0.737	0.672	0.457	0.4	0.53	0.637	0.333	0.266	0.815	0.649	0.792	0.741	0.388	0.388	0.369	0.302	0.207	0.153
Calu-6	0.538	0.565	0.611	0.534	0.239						0.874	0.977	0.852	0.506	0.0891					
ChaGo-K-1	0.4	0.439	0.391	0.382	0.41	0.511	0.506	0.444	0.462	0.527	0.956	0.669		0.955	1.32	0.58	0.598	0.476	0.151	0.132
EBC-1	0.632	0.765	0.642	0.583	0.269						0.449	0.379	0.395	0.16	0.177					
EKVX	0.842		0.966	0.888	0.648	0.257	0.218	0.141	0.232	0.231	0.86	0.618	0.98	0.924	0.922	0.55	0.579	0.603	0.499	0.151
EMC-BAC-2	0.491	0.514	0.418	0.478	0.43	0.478	0.526	0.398	0.466	0.371	1.15	1.18	1.13	1.19	1.22	0.308	0.268	0.298	0.202	0.0961
EPLC-272H	0.796	0.889	0.756	0.263	0.215	0.255	0.277	0.351	0.225	0.158	1.1	1.16	1.38	1.03	1.26	0.344	0.37	0.37	0.15	0.217
H3255	0.537	0.608	0.541	0.557	0.546	0.306	0.377	0.372	0.335	0.42	0.517	0.544	0.681	0.537	0.438	0.346	0.347	0.352	0.427	0.242
HARA	0.639	0.962	1.03	0.99	0.89	0.427	0.432	0.463	0.455	0.357	1.09	1.11	1.15	0.871	1.11	0.26	0.236	0.221	0.183	0.0802
HCC-15	0.734	0.769	0.694	0.763	0.704	0.486	0.432	0.348	0.438	0.327	0.726	0.726	0.645	0.569	0.469	0.634	0.672	0.479	0.0991	0.0639
